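GI50 = concentration required for 50% inhibition of growth. Definition used: TGI = concentration required for complete inhibition of growth.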
Legend:
Assay in all cases: DTP human tumour cell line panel, 384-well format
ACHN renal = test system: ACHN renal
SK-OV-3 ovarian = test system: SK-OV-3 ovarian
NCI-H322M lung = test system: NCI-H322M lung
MALME-3M melanoma = test system: MALME-3M melanoma
PC-3 prostate = test system: PC-3 prostate
SN12C renal = test system: SN12C renal
BT-549 breast = test system: BT-549 breast
MDA-MB-468 breast = test system: MDA-MB-468 breast
UACC-62 melanoma = test system: UACC-62 melanoma
HOP-62 NSCLC = test system: HOP-62 NSCLC
COLO 205 colon = test system: COLO 205 colon
DU-145 prostate = test system: DU-145 prostate
SF-295 CNS = test system: SF-295 CNS
HT29 colon = test system: HT29 colon
M14 melanoma = test system: M14 melanoma
HCC-2998 colon = test system: HCC-2998 colon
T-47D breast = test system: T-47D breast
OVCAR-3 ovarian = test system: OVCAR-3 ovarian
NCI-H522 lung = test system: NCI-H522 lung
NCI-H23 lung = test system: NCI-H23 lung
OVCAR-5 ovarian = test system: OVCAR-5 ovarian
RXF 393 renal = test system: RXF 393 renal
HCT-116 colon = test system: HCT-116 colon
U251 glioblastoma = test system: U251 glioblastoma
SF-539 CNS = test system: SF-539 CNS
KM12 colon = test system: KM12 colon
UACC-257 melanoma = test system: UACC-257 melanoma
SNB-75 CNS = test system: SNB-75 CNS
SF-268 CNS = test system: SF-268 CNS
SNB-19 CNS = test system: SNB-19 CNS
HS 578T breast = test system: HS 578T breast
NCI-H226 lung = test system: NCI-H226 lung
LOX IMVI melanoma = test system: LOX IMVI melanoma
NCI/ADR-RES ovarian = test system: NCI/ADR-RES ovarian
EKVX NSCLC = test system: EKVX NSCLC
TK-10 renal = test system: TK-10 renal
MOLT-4 leukemia = test system: MOLT-4 leukemia
OVCAR-8 ovarian = test system: OVCAR-8 ovarian
MDA-MB-231 breast = test system: MDA-MB-231 breast
SK-MEL-5 melanoma = test system: SK-MEL-5 melanoma
RPMI-8226 leukemia = test system: RPMI-8226 leukemia
IGROV1 ovarian = test system: IGROV1 ovarian
HCT-15 colon = test system: HCT-15 colon
OVCAR-4 ovarian = test system: OVCAR-4 ovarian
HL-60(TB) leukemia = test system: HL-60(TB) leukemia
SR leukemia = test system: SR leukemia
A498 renal = test system: A498 renal
HOP-92 NSCLC = test system: HOP-92 NSCLC
SK-MEL-28 melanoma = test system: SK-MEL-28 melanoma
MCF7 breast = test system: MCF7 breast
MDA-MB-435 melanoma = test system: MDA-MB-435 melanoma
NCI-H460 NSCLC = test system: NCI-H460 NSCLC
CAKI-1 renal = test system: CAKI-1 renal
A549 NSCLC = test system: A549 NSCLC

`CCn1c(C(=O)N(C2CC2)C2CC2)cc2c3c(ncn3C)c(Nc3cc(C)n(C)n3)nc21` showed a GI50 (ACHN renal) greater than 100 µM, a TGI (ACHN renal) greater than 100 µM and a GI50 (SK-OV-3 ovarian) of 34.8 µM. The TGI (SK-OV-3 ovarian) was greater than 100 µM, the GI50 (NCI-H322M lung) was greater than 100 µM and the TGI (NCI-H322M lung) was greater than 100 µM. The GI50 (MALME-3M melanoma) was greater than 100 µM, the TGI (MALME-3M melanoma) was greater than 100 µM and the GI50 (PC-3 prostate) was greater than 100 µM. The TGI (PC-3 prostate) was greater than 100 µM, the GI50 (SN12C renal) was 3.43 µM and the TGI (SN12C renal) was greater than 100 µM. The GI50 (BT-549 breast) was greater than 100 µM, the TGI (BT-549 breast) was greater than 100 µM and the GI50 (MDA-MB-468 breast) was greater than 100 µM. It also gave a TGI (MDA-MB-468 breast) greater than 100 µM, a GI50 (UACC-62 melanoma) greater than 100 µM and a TGI (UACC-62 melanoma) greater than 100 µM. The GI50 (HOP-62 NSCLC) was greater than 100 µM, the TGI (HOP-62 NSCLC) was greater than 100 µM and the GI50 (COLO 205 colon) was greater than 100 µM. It also gave a TGI (COLO 205 colon) greater than 100 µM, a GI50 (DU-145 prostate) greater than 100 µM and a TGI (DU-145 prostate) greater than 100 µM. It also gave a GI50 (SF-295 CNS) greater than 100 µM, a TGI (SF-295 CNS) greater than 100 µM and a GI50 (HT29 colon) greater than 100 µM. For the same compound, the TGI (HT29 colon) was greater than 100 µM, the GI50 (M14 melanoma) was greater than 100 µM and the TGI (M14 melanoma) was greater than 100 µM. It also gave a GI50 (HCC-2998 colon) greater than 100 µM, a TGI (HCC-2998 colon) greater than 100 µM and a GI50 (T-47D breast) greater than 100 µM. The TGI (T-47D breast) was greater than 100 µM, the GI50 (OVCAR-3 ovarian) was greater than 100 µM and the TGI (OVCAR-3 ovarian) was greater than 100 µM. For the same compound, the GI50 (NCI-H522 lung) was greater than 100 µM, the TGI (NCI-H522 lung) was greater than 100 µM and the GI50 (NCI-H23 lung) was greater than 100 µM. The TGI (NCI-H23 lung) was greater than 100 µM, the GI50 (OVCAR-5 ovarian) was greater than 100 µM and the TGI (OVCAR-5 ovarian) was greater than 100 µM. It also gave a GI50 (RXF 393 renal) greater than 100 µM, a TGI (RXF 393 renal) greater than 100 µM and a GI50 (HCT-116 colon) greater than 100 µM. It also gave a TGI (HCT-116 colon) greater than 100 µM, a GI50 (U251 glioblastoma) greater than 100 µM and a TGI (U251 glioblastoma) greater than 100 µM. For the same compound, the GI50 (SF-539 CNS) was greater than 100 µM, the TGI (SF-539 CNS) was greater than 100 µM and the GI50 (KM12 colon) was 0.675 µM. The TGI (KM12 colon) was greater than 100 µM, the GI50 (UACC-257 melanoma) was greater than 100 µM and the TGI (UACC-257 melanoma) was greater than 100 µM. It also gave a GI50 (SNB-75 CNS) of 26.2 µM, a TGI (SNB-75 CNS) greater than 100 µM and a GI50 (SF-268 CNS) greater than 100 µM. It also gave a TGI (SF-268 CNS) greater than 100 µM, a GI50 (SNB-19 CNS) greater than 100 µM and a TGI (SNB-19 CNS) greater than 100 µM. The GI50 (HS 578T breast) was greater than 100 µM, the TGI (HS 578T breast) was greater than 100 µM and the GI50 (NCI-H226 lung) was greater than 100 µM. The TGI (NCI-H226 lung) was greater than 100 µM, the GI50 (LOX IMVI melanoma) was 49.7 µM and the TGI (LOX IMVI melanoma) was greater than 100 µM. It also gave a GI50 (NCI/ADR-RES ovarian) greater than 100 µM, a TGI (NCI/ADR-RES ovarian) greater than 100 µM and a GI50 (EKVX NSCLC) greater than 100 µM. For the same compound, the TGI (EKVX NSCLC) was greater than 100 µM, the GI50 (TK-10 renal) was 81.8 µM and the TGI (TK-10 renal) was greater than 100 µM. For the same compound, the GI50 (MOLT-4 leukemia) was 87.2 µM, the TGI (MOLT-4 leukemia) was greater than 100 µM and the GI50 (OVCAR-8 ovarian) was greater than 100 µM. The TGI (OVCAR-8 ovarian) was greater than 100 µM, the GI50 (MDA-MB-231 breast) was greater than 100 µM and the TGI (MDA-MB-231 breast) was greater than 100 µM. The GI50 (SK-MEL-5 melanoma) was greater than 100 µM, the TGI (SK-MEL-5 melanoma) was greater than 100 µM and the GI50 (RPMI-8226 leukemia) was greater than 100 µM. For the same compound, the TGI (RPMI-8226 leukemia) was greater than 100 µM, the GI50 (IGROV1 ovarian) was 44 µM and the TGI (IGROV1 ovarian) was greater than 100 µM. The GI50 (HCT-15 colon) was greater than 100 µM, the TGI (HCT-15 colon) was greater than 100 µM and the GI50 (OVCAR-4 ovarian) was 33.4 µM. For the same compound, the TGI (OVCAR-4 ovarian) was greater than 100 µM, the GI50 (HL-60(TB) leukemia) was greater than 100 µM and the TGI (HL-60(TB) leukemia) was greater than 100 µM. It also gave a GI50 (SR leukemia) of 8.59 µM, a TGI (SR leukemia) of 50.5 µM and a GI50 (A498 renal) greater than 100 µM. It also gave a TGI (A498 renal) greater than 100 µM, a GI50 (HOP-92 NSCLC) greater than 100 µM and a TGI (HOP-92 NSCLC) greater than 100 µM. It also gave a GI50 (SK-MEL-28 melanoma) greater than 100 µM, a TGI (SK-MEL-28 melanoma) greater than 100 µM and a GI50 (MCF7 breast) greater than 100 µM. The TGI (MCF7 breast) was greater than 100 µM, the GI50 (MDA-MB-435 melanoma) was greater than 100 µM and the TGI (MDA-MB-435 melanoma) was greater than 100 µM. For the same compound, the GI50 (NCI-H460 NSCLC) was greater than 100 µM, the TGI (NCI-H460 NSCLC) was greater than 100 µM and the GI50 (CAKI-1 renal) was greater than 100 µM. It also gave a TGI (CAKI-1 renal) greater than 100 µM, a GI50 (A549 NSCLC) greater than 100 µM and a TGI (A549 NSCLC) greater than 100 µM.

Reference: PubChem BioAssay (NCI)
